From patent US8980902B2, “Poly (ADP-ribose) polymerase (PARP) inhibitors” (Takeda Pharmaceutical Company Limited, priority 2009, dated 2015)
pIC50: −log10 of the molar value.

Assays:
[1] = target: T1, PARP (Homo sapiens, UniProt P09874); assay: PARP ELISA (ELISA-based colorimetric PARP/Apoptosis Assay kit), inhibition of PARP catalytic activity; assay type: biochemical; details: pIC50 = -log10 IC50 (molar); 0.1 nM PARP stock, 100 μM NAD+ stock with activated DNA, 10 min catalysis
T1 construct: purchased Trevigen 4684-096-01 (enzyme); kit 4684-096-K HT
Protocol: Inhibition Constant (IC50) from PARP ELISA
Inhibition of PARP catalytic activity was determined by use of an ELISA-based colorimetric PARP/Apoptosis Assay kit (part number 4684-096-K HT, Trevigen). To each histone coated well in the 96-well plate supplied by the manufacturer (part number 4677-096-P) is added 39 μL of PARP buffer (part number 4671-096-02) and 1 μL of test compound dissolved in DMSO (diluted serially 3-fold 11 times). After mixing, 5 μL of 0.1 nM PARP (part number 4684-096-01) is added and the solution allowed to stand at ambient temperature for 10 minutes. PARP catalysis is initiated with the addition of 5 μL of 100 μM β-nicotinamide adenine dinucleotide (NAD+) (part number 4684-096-02) with activated DNA (part number 4671-096-06). After 10 minutes of catalysis the reaction is quenched by solvent aspiration followed by irrigation of the assay wells 4 times with phosphate buffered saline (PBS) containing 0.1% t-octylphenoxypolyethoxyethanol (Triton® X-100). Mouse Anti-poly ADP ribose (PAR) monoclonal antibody, goat antimouse immunoglobulin G (IgG)-horse radish peroxidase (HRP) conjugate and HRP substrate are added according to the manufacture's specifications to generate a colorimetric signal proportional to PARP catalytic activity. An IC50 for the test compound is calculated from the equation Absorbance=(Amax−background)/(1+([cmpd]/IC50)^n)+background fit to the 12 point test compound concentration gradient via nonlinear least squares.
(§1) Here, pIC50=−log10 IC50, where IC50 is the molar concentration of the compound at 50% inhibition.

[2] = test system: Jurkat cell line; assay: PARP cellular chemopotentiation assay (MTS viability, with and without Temozolomide); assay type: cell-based; details: Chemopotentiation factor: ratio of EC50 for cell viability without and with 100 μM TMZ, Jurkat cells, 96 hours of treatment
Protocol: Potentiation Factor (PF50) Determination from PARP Cellular Chemopotentiation Assay
Jurkat cell line was maintained according to the supplier (American Type Culture Collection (Rockville, Md.)). Cells were seeded in 96-well tissue culture microplates at 10,000 cells per well and cultured for 24 hours prior to addition of compounds, TMZ (Temozolomide) or DMSO (dimethylsulfoxide) vehicle. After 96 hours of treatment, the conversion of MTS ([3-(4,5-dimethylthiazol-2-yl)-5-(3-carboxymethoxyphenyl)-2-(4-sulfophenyl)-2H-tetrazolium, inner salt], Promega, Madison, Wis.) by metabolically active cells was determined through measuring the OD490 nm with a Spectramax microplate reader (Molecular Devices, San Diego, Calif.). To generate concentration-response curves, cells were treated in duplicate with a range of serial compound dilutions (final DMSO concentration was 0.5%) in the absence or presence of 100 μM TMZ chemoreagent. The percentage of viable cells per well was calculated by correction for background and normalizing against DMSO-treated cells. EC50 values for inhibition of cell viability were calculated using XLfit4 MicroSoft Excel curve-fitting software. Chemopotentiation factor PF50 was calculated as the ratio of EC50 values of cells co-treated without and with TMZ, respectively.
as §1

T1 sequence (P09874 whole entry): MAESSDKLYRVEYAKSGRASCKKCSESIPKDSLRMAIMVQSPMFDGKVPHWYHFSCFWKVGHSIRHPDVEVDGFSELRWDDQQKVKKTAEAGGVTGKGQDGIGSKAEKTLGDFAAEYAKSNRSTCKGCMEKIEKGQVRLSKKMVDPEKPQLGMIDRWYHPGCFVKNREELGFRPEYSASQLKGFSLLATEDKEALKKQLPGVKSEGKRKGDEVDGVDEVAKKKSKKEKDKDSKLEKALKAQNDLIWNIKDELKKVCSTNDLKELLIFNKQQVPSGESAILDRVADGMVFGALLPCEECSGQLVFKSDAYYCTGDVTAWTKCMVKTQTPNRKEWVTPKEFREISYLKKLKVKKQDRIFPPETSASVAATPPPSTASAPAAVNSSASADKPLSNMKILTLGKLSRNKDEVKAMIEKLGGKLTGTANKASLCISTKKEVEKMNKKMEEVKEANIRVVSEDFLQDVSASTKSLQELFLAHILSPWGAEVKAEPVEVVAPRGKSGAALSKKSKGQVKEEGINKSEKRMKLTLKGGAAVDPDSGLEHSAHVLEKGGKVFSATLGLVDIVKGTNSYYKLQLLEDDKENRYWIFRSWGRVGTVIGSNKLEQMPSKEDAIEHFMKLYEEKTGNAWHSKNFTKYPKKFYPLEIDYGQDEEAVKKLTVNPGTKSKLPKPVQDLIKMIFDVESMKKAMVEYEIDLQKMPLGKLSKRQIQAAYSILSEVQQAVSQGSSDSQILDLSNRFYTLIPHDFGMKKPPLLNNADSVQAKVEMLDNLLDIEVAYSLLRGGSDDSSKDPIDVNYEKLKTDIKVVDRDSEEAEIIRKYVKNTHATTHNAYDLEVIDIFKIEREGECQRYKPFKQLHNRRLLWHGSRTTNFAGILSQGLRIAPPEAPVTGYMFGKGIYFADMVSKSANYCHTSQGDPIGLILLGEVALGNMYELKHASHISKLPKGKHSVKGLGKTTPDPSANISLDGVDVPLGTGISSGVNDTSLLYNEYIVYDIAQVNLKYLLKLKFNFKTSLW

`CCNC(=O)c1ccc(N2CCN(Cc3cnc4c(c3)[nH]c(=O)n3cccc43)CC2)c(C)c1` [Example 8, N-ethyl-3-methyl-4-(4-((6-oxo-5,6-dihydropyrido[2,3-e]pyrrolo[1,2-c]pyrimidin-3-yl)methyl)piperazin-1-yl)benzamide] was tested, and the pIC50 [1] was no less than 8.00 and the PF50 [2] was greater than 1600.
`O=C(NC1CC1)c1ccc(N2CCN(Cc3cnc4c(c3)[nH]c(=O)n3cccc43)CC2)cc1` [Example 4, N-cyclopropyl-4-(4-((6-oxo-5,6-dihydropyrido[2,3-e]pyrrolo[1,2-c]pyrimidin-3-yl)methyl)piperazin-1-yl)benzamide] showed a pIC50 [1] of no less than 8.00 and a PF50 [2] greater than 1000.
For `CNC(=O)c1ccc(N2CCN(Cc3cnc4c(c3)[nH]c(=O)n3cccc43)CC2)cc1` [Example 3, N-methyl-4-(4-((6-oxo-5,6-dihydropyrido[2,3-e]pyrrolo[1,2-c]pyrimidin-3-yl)methyl)piperazin-1-yl)benzamide], the pIC50 [1] was no less than 8.00 and the PF50 [2] was greater than 24000.
Compound `CCNC(=O)c1ccc(N2CCN(Cc3cnc4c(c3)[nH]c(=O)n3cccc43)CC2)cc1` [Example 2, N-ethyl-4-(4-((6-oxo-5,6-dihydropyrido[2,3-e]pyrrolo[1,2-c]pyrimidin-3-yl)methyl)piperazin-1-yl)benzamide] has a pIC50 [1] of no less than 8.00 and a PF50 [2] greater than 1000.
In the case of `CNC(=O)c1ccc(N2CCN(Cc3cnc4c(c3)[nH]c(=O)n3cccc43)CC2)c(Cl)c1` [Example 5, 3-chloro-N-methyl-4-(4-((6-oxo-5,6-dihydropyrido[2,3-e]pyrrolo[1,2-c]pyrimidin-3-yl)methyl)piperazin-1-yl)benzamide], the pIC50 [1] was no less than 8.00 and the PF50 [2] was greater than 63.
Compound `CNC(=O)c1ccc(N2CCN(Cc3cnc4c(c3)[nH]c(=O)n3cccc43)CC2)c(C)c1` [Example 7, N,3-dimethyl-4-(4-((6-oxo-5,6-dihydropyrido[2,3-e]pyrrolo[1,2-c]pyrimidin-3-yl)methyl)piperazin-1-yl)benzamide] has a pIC50 [1] of no less than 8.00 and a PF50 [2] greater than 900.
Compound `CCNC(=O)c1ccc(N2CCN(Cc3cnc4c(c3)[nH]c(=O)n3cccc43)CC2)c(F)c1` [Example 10, N-ethyl-3-fluoro-4-(4-((6-oxo-5,6-dihydropyrido[2,3-e]pyrrolo[1,2-c]pyrimidin-3-yl)methyl)piperazin-1-yl)benzamide] has a pIC50 [1] of no less than 8.00 and a PF50 [2] greater than 60.
With `CNC(=O)c1ccc(N2CCN(Cc3cnc4c(c3)[nH]c(=O)n3cccc43)CC2)c(F)c1` [Example 9, 3-fluoro-N-methyl-4-(4-((6-oxo-5,6-dihydropyrido[2,3-e]pyrrolo[1,2-c]pyrimidin-3-yl)methyl)piperazin-1-yl)benzamide] the pIC50 [1] was no less than 8.00 and the PF50 [2] was greater than 16.
Compound `CCNC(=O)c1ccc(N2CCN(Cc3cnc4c(c3)[nH]c(=O)n3cccc43)CC2)c(Cl)c1` [Example 6, 3-chloro-N-ethyl-4-(4-((6-oxo-5,6-dihydropyrido[2,3-e]pyrrolo[1,2-c]pyrimidin-3-yl)methyl)piperazin-1-yl)benzamide] has a pIC50 [1] of no less than 8.00 and a PF50 [2] greater than 1000.
